Measurements as given in ChEMBL document CHEMBL1268896, “Development of the next generation of HIV-1 integrase inhibitors: pyrazolone as a novel inhibitor scaffold” (Bioorg Med Chem Lett, 2010).

Tests used:
[1] = biological target: T1, Human immunodeficiency virus type 1 integrase (Human immunodeficiency virus 1, UniProt Q7ZJM1); assay: Inhibition of HIV1 integrase strand transfer activity
[2] = biological target: T1, Human immunodeficiency virus type 1 integrase; assay: Inhibition of HIV1 integrase 3' processing activity

T1 sequence (Q7ZJM1 whole entry): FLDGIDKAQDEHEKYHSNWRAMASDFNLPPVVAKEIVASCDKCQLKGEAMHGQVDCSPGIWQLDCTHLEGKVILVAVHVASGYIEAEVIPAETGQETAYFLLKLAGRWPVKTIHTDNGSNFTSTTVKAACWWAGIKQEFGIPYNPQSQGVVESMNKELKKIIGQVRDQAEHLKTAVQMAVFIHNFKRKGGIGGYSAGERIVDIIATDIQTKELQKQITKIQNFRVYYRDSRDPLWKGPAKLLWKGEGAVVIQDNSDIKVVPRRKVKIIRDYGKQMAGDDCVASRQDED

| SMILES | IC50 [1] [µM] | IC50 [2] [µM] |
| --- | --- | --- |
| COc1ccc(/C=C2\C(=O)N(c3cccc(Br)c3)N=C2C)cc1OCc1ccc(F)cc1 | > 100 | > 100 |
| COc1ccc(/C=C2\C(=O)N(c3cccc(Br)c3)N=C2C(F)(F)F)c(OC)c1OC | > 100 | > 100 |
| COc1ccc(/C=C2\C(=O)N(c3cccc(F)c3)N=C2C(F)(F)F)cc1OCc1ccc(F)cc1 | 60 | > 100 |
| COc1ccc(/C=C2\C(=O)N(c3cccc(C(F)(F)F)c3)N=C2C(F)(F)F)cc1OCc1ccc(F)cc1 | 24 | 90 |
| O=C1/C(=C\c2ccc(O)c(OCc3ccc(F)cc3)c2)C(C(F)(F)F)=NN1c1cccc(Br)c1 | 22 | > 100 |
| COc1ccc(/C=C2\C(=O)N(c3cccc(C)c3)N=C2C(F)(F)F)cc1OCc1ccc(F)cc1 | > 100 | > 100 |
| COc1ccc(/C=C2\C(=O)N(c3cccc(Br)c3)N=C2C(F)(F)F)cc1OC | 34 | 89 |
| COc1ccc(/C=C2\C(=O)N(c3nc4ccccc4s3)N=C2C(F)(F)F)cc1OCc1ccc(F)cc1 | 27 | > 100 |
| COc1ccc(/C=C2\C(=O)N(c3ccc(I)cc3)N=C2C(F)(F)F)cc1OCc1ccc(F)cc1 | 69 | > 100 |
| COc1ccc(/C=C2\C(=O)N(c3cccc(Br)c3)N=C2C(F)(F)F)cc1Cc1ccc(F)cc1 | 11 | 21 |
| COc1ccc(/C=C2\C(=O)N(c3cccc(Br)c3)N=C2C(F)(F)F)cc1OCc1ccc(F)cc1 | 40 | 83 |
| COc1ccc(/C=C2\C(=O)N(c3cccc(I)c3)N=C2C(F)(F)F)cc1OCc1ccc(F)cc1 | 35 | > 100 |
| COc1ccc(/C=C2\C(=O)N(c3cccc(Cl)c3)N=C2C(F)(F)F)cc1OCc1ccc(F)cc1 | 30 | 88 |
| COc1ccc(/C=C2\C(=O)N(c3cc(Cl)cc(Cl)c3)N=C2C(F)(F)F)cc1OCc1ccc(F)cc1 | 12 | > 100 |
| COc1ccc(/C=C2\C(=O)N(c3ccccc3)N=C2C(F)(F)F)cc1OCc1ccc(F)cc1 | > 100 | > 100 |
| COc1ccc(/C=C2\C(=O)N(c3cccc([N+](=O)[O-])c3)N=C2C(F)(F)F)cc1OCc1ccc(F)cc1 | 19 | 52 |

| SMILES | IC50 [1] [µM] | IC50 [2] [µM] |
| --- | --- | --- |
| COc1ccc(/C=C2\C(=O)N(c3ccc(NS(C)(=O)=O)cc3)N=C2C(F)(F)F)cc1OCc1ccc(F)cc1 | > 100 | > 100 |
| COc1ccc(/C=C2\C(=O)N(c3cccc(Br)c3)N=C2C(=O)O)cc1OCc1ccc(F)cc1 | 19 | 55 |
| COc1ccc(/C=C2\C(=O)N(c3ccc(C(=O)O)cc3)N=C2C(F)(F)F)cc1OCc1ccc(F)cc1 | 41 | > 100 |
| O=C(O)C1=NN(c2cccc([N+](=O)[O-])c2)C(=O)/C1=C\c1ccc(O)c(OCc2ccc(F)cc2)c1 | 10 | 95 |
| COc1ccc(/C=C2\C(=O)N(c3cccc([N+](=O)[O-])c3)N=C2C(=O)O)cc1OCc1ccc(F)cc1 | 14 | 60 |
| COc1ccc(/C=C2\C(=O)N(c3cccc(-c4ccccc4)c3)N=C2C(F)(F)F)cc1OCc1ccc(F)cc1 | 16 | > 100 |
| O=C(O)C1=NN(c2cccc([N+](=O)[O-])c2)C(=O)/C1=C\c1ccc(OCc2ccc(F)cc2)c(O)c1 | 3 | 21 |
| COc1ccc(/C=C2\C(=O)N(c3ccc(Br)cc3)N=C2C(F)(F)F)cc1OCc1ccc(F)cc1 | 25 | 82 |
| CCC1=NN(c2cccc(Br)c2)C(=O)/C1=C\c1ccc(OC)c(OCc2ccc(F)cc2)c1 | > 100 | > 100 |
| COc1ccc(/C=C2\C(=O)N(c3cccc([N+](=O)[O-])c3)N=C2C(=O)O)cc1Cc1ccc(F)cc1 | 11 | 15 |
| COc1ccc(/C=C2\C(=O)N(c3cccc(Br)c3)N=C2OC(C)=O)cc1OCc1ccc(F)cc1 | 100 | > 100 |
| COc1ccc(/C=C2\C(=O)N(c3cccc(Br)c3)N=C2COC(C)=O)cc1OCc1ccc(F)cc1 | 57 | > 100 |
| COc1ccc(/C=C2\C(=O)N(c3cccc(Br)c3)N=C2NC(=O)C(F)(F)F)cc1OCc1ccc(F)cc1 | > 100 | > 100 |
| COc1ccc(/C=C2\C(=O)N(c3cccc(Br)c3)N=C2C(F)(F)F)cc1OCc1cccc(Cl)c1F | 30 | 50 |
| CCC(=O)OC1=NN(c2cccc(Br)c2)C(=O)/C1=C\c1ccc(OC)c(OCc2ccc(F)cc2)c1 | 88 | > 100 |
| COc1cc(/C=C2\C(=O)N(c3cccc(Br)c3)N=C2C(F)(F)F)cc(OC)c1OC | 15 | 61 |
